The values that follow come from ChEMBL document CHEMBL5726791, “Inhibitors of lysine specific demethylase-1” (2018).

Bounds are passed on as bounds.

A word on the IC50: it is the concentration that inhibits the measured activity by half.

For the experiment, the target named is Lysine-specific histone demethylase 1A (Homo sapiens, UniProt O60341). In words: In Vitro Enzyme Inhibition Assay: The enzymatic assay of LSD1 activity is based on Time Resolved-Fluorescence Resonance Energy Transfer (TR-FRET) detection. The inhibitory properties of compounds to LSD1 were determined in 384-well plate format under the following reaction conditions: 0.1-0.5 nM LSD1, 50 nM H3K4mel-biotin labeled peptide (Anaspec cat #64355), 2 μM FAD in assay buffer of 50 mM HEPES, pH7.3, 10 mM NaCl, 0.005% Brij35, 0.5 mM TCEP, 0.2 mg/ml BSA. Reaction product was determined quantitatively by TR-FRET after the addition of detection reagent Phycolink Streptavidin-allophycocyanin (Prozyme) and Europium-anti-unmodified histone H3 lysine 4 (H3K4) antibody (PerkinElmer) in the presence of LSD1 inhibitor such as 1.8 mM of Tranylcypromine hydrochloride (2-PCPA) in LANCE detection buffer (PerkinElmer) to final concentration of 12.5 nM and 0.25 nM respectively. A general note: TR-FRET usually uses a lanthanide donor and a delayed reading to cut background.

As to `Cn1ncc2cc(-c3sc(N4CC[C@@H]5CNC[C@@H]5CC4)nc3-c3ccc(C#N)cc3)ccc21`, the IC50 is less than 100 nM.
